In experiment [1] the target is T1, hNSun6 (Homo sapiens, UniProt Q8TEA1).
T1 sequence (Q8TEA1 1-469): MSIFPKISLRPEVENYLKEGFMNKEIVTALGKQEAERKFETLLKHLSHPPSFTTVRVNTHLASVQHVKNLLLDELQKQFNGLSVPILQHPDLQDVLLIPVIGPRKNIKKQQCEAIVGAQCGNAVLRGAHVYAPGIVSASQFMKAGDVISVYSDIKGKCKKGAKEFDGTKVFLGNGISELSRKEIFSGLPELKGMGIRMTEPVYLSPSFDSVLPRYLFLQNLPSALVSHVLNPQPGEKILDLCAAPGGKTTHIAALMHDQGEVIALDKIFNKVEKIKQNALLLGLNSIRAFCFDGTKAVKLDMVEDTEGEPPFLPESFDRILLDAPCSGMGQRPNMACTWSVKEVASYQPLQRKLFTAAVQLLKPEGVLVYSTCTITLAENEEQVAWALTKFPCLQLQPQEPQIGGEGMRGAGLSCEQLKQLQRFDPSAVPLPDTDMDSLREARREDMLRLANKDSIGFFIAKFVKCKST
Kind of experiment: isothermal titration calorimetry. The format is binding. In general terms: In ITC the heat of successive injections is recorded.

Experiment [2] concerns the target T2, hNSun6 (Homo sapiens, UniProt Q8TEA1, K248A).
T2 sequence (Q8TEA1 1-469 K248A): T1 sequence (Q8TEA1 1-469) with K248A
In words: isothermal titration calorimetry. The class given is binding.

Changes are numbered by the printed parent chain.

One may read the Kd as the concentration at which binding is half-saturated.

For the molecule `C[S+](CC[C@H](N)C(=O)O)C[C@H]1O[C@@H](n2cnc3c(N)ncnc32)[C@H](O)[C@@H]1O` (some centres unmarked) [SAM], the Kd was found to be 1.7 µM on hNSun6 [1] and 10.3 µM at hNSun6 [2].

These data come from publication PMC5499824 (Nucleic Acids Research, 2017).
